Assay results as given in patent publication US20070202116A1, “Treatment of micro-organism infection” (priority 2001, published 2007).
Where two headings read alike, the source gives them in different places.

Experiments:
EMRSA-15 [1] = assay type: in vivo, S. aureus; conditions: Group 3: Vancomycin 6 mg/kg alone iv
Experimental: Methods: 60 female CD-1 mice (22-24 g) were given 1×10^7 cfu of EMRSA-15 as a 100 μl iv bolus.
All mice were terminated at 48 hours for culture of kidney, liver and spleen.
Results: expressed as log cfu per gram of tissue, unless the majority of mice (>5) were cleared (ie organs were culture-negative). N/A=not applicable. (Table 7)

EMRSA-15 [2] = assay type: in vivo, S. aureus; conditions: for Survivors at 24 h (n = 10): 8×10^7 cfu; for Mortality: 10 mice
Experimental: Method: 60 female CD-I mice (22-24 g) were given S. aureus (a fresh clinical isolate of EMRSA-15) at a dose of 8×10^7 cfu in a 100 μl iv bolus.
All mice were terminated at 48 hours for culture of kidney, liver and spleen. Mice fatalities prior to the 48 hour cull were not subject to organ colony counts.

[3] = test system: EMRSA strains, vancomycin resistant subpopulations, Linzolid resistant strains; assay: Checkerboard MIC / FIC / FIX of vancomycin and Aurograb (Tables 9, 10); assay type: cell-based, S. aureus; conditions: for MIC In combination: VAN with Aurograb; for MIC: Staphylococcus aureus
Experimental: In order to determine the Minimum Inhibitory Concentration (MIC), the Fractional Inhibitory Concentration (FIC) and the FIX (fractional inhibitory index), the following was method was used.
The cells were diluted in Isosensitest Broth (Oxoid, UK) to give a final inoculum of […] cells per mL. […] To this was added exogenous Aurograb in the range 0.3-25 μg/ml in a checkerboard formation. A negative control series was also prepared containing Aurograb formulation buffer alone. Cultures were incubated for 48 hours at 37° C.
The minimum inhibitory concentration (MIC) was defined as the lowest concentration of agent at which no bacterial growth occurred and was determined by spectrophotometric evaluation of the lack of turbidity (growth) in culture.
Fractional inhibitory concentrations (FIC) and FIX values were calculated. Synergistic activity between the two agents was defined as an FIX value ≦0.5. Indifferent activity was defined as a value of 0.5-4, and a value of ≧4 defined antagonism.
The MIC (Alone) column indicates the minimum inhibitory concentration of the agent when administered alone. The MIC (In combination) column indicates the minimum inhibitory concentration of each drug when used in combination.

CN[C@H](CC(C)C)C(=O)N[C@H]1C(=O)N[C@@H](CC(N)=O)C(=O)N[C@H]2C(=O)N[C@H]3C(=O)N[C@H](C(=O)N[C@H](C(=O)O)c4cc(O)cc(O)c4-c4cc3ccc4O)[C@H](O)c3ccc(c(Cl)c3)Oc3cc2cc(c3O[C@@H]2O[C@H](CO)[C@@H](O)[C@H](O)[C@H]2O[C@H]2C[C@](C)(N)[C@H](O)[C@H](C)O2)Oc2ccc(cc2Cl)[C@H]1O [Vancomycin, vancomycin]
0.0125 µg/mL: MIC In combination ([3]; EMRSA strain 9)
8 µg/mL: MIC ([3]; read-out: MIC Alone, EMRSA strain 1A) | MIC ([3]; read-out: MIC Alone, EMRSA strain 2A) | MIC ([3]; read-out: MIC Alone, NARSA 1 (Hiramatsu)) | MIC ([3]; read-out: MIC Alone, NARSA 12 (France)) | MIC ([3]; read-out: MIC Alone, NARSA 17 (New York))
3 µg/mL: MIC ([3]; read-out: MIC Alone, NARSA 2 (Hiramatsu))
5 deaths: Mortality (EMRSA-15 [2]; vancomycin alone 2.0 mg/kg)
1 µg/mL: MIC In combination ([3]; EMRSA strain 1A) | MIC In combination ([3]; EMRSA strain 2A) | MIC In combination ([3]; EMRSA strain 11A) | MIC In combination ([3]; EMRSA strain 17) | MIC In combination ([3]; NARSA 12 (France)) | MIC In combination ([3]; NARSA 119 (Linezolid R)) | MIC In combination ([3]; NARSA 120 (Linezolid R)) | MIC In combination ([3]; NARSA 121 (Linezolid R))
0.125 µg/mL: MIC In combination ([3]; EMRSA strain 6)
5: Spleen, number of mice cleared (EMRSA-15 [1]; 10 mice) | Survivors at 24 h (n = 10) (EMRSA-15 [2]; Group 4: Vancomycin 2.0 mg/kg alone iv)
8: Liver, number of mice cleared (EMRSA-15 [1]; 10 mice, listed as vancomycin)
N/A (8 clear): Liver, number of mice cleared (EMRSA-15 [1]; 10 mice)
2 µg/mL: MIC In combination ([3]; NARSA 1 (Hiramatsu)) | MIC In combination ([3]; NARSA 17 (New York))
4: Survivors at 24 h (n = 10) (EMRSA-15 [2]; Group 2: Vancomycin 4.0 mg/kg alone iv)
6.53 ± 1.53 Log cfu/g of tissue: Kidney Log cfu/g of tissue (EMRSA-15 [1]; 48 hours)
4 µg/mL: MIC ([3]; read-out: MIC Alone, EMRSA strain 11A) | MIC ([3]; read-out: MIC Alone, EMRSA strain 17) | MIC ([3]; read-out: MIC Alone, NARSA 119 (Linezolid R)) | MIC ([3]; read-out: MIC Alone, NARSA 120 (Linezolid R)) | MIC ([3]; read-out: MIC Alone, NARSA 121 (Linezolid R))
0.03 µg/mL: MIC In combination ([3]; EMRSA strain 1) | MIC In combination ([3]; EMRSA strain 2) | MIC In combination ([3]; EMRSA strain 3) | MIC In combination ([3]; EMRSA strain 4) | MIC In combination ([3]; EMRSA strain 5) | MIC In combination ([3]; EMRSA strain 7) | MIC In combination ([3]; EMRSA strain 8) | MIC In combination ([3]; EMRSA strain 8A) | MIC In combination ([3]; EMRSA strain 10) | MIC In combination ([3]; EMRSA strain 11) | MIC In combination ([3]; EMRSA strain 12) | MIC In combination ([3]; EMRSA strain 12A) | MIC In combination ([3]; EMRSA strain 13) | MIC In combination ([3]; EMRSA strain 14) | MIC In combination ([3]; EMRSA strain 15) | MIC In combination ([3]; EMRSA strain 15A) | MIC In combination ([3]; EMRSA strain 16)
0.5 µg/mL: MIC In combination ([3]; NARSA 2 (Hiramatsu)) | MIC ([3]; read-out: MIC Alone, EMRSA strain 1) | MIC ([3]; read-out: MIC Alone, EMRSA strain 2) | MIC ([3]; read-out: MIC Alone, EMRSA strain 3) | MIC ([3]; read-out: MIC Alone, EMRSA strain 4) | MIC ([3]; read-out: MIC Alone, EMRSA strain 5) | MIC ([3]; read-out: MIC Alone, EMRSA strain 6) | MIC ([3]; read-out: MIC Alone, EMRSA strain 7) | MIC ([3]; read-out: MIC Alone, EMRSA strain 8) | MIC ([3]; read-out: MIC Alone, EMRSA strain 8A) | MIC ([3]; read-out: MIC Alone, EMRSA strain 9) | MIC ([3]; read-out: MIC Alone, EMRSA strain 10) | MIC ([3]; read-out: MIC Alone, EMRSA strain 11) | MIC ([3]; read-out: MIC Alone, EMRSA strain 12) | MIC ([3]; read-out: MIC Alone, EMRSA strain 12A) | MIC ([3]; read-out: MIC Alone, EMRSA strain 13) | MIC ([3]; read-out: MIC Alone, EMRSA strain 14) | MIC ([3]; read-out: MIC Alone, EMRSA strain 15) | MIC ([3]; read-out: MIC Alone, EMRSA strain 15A) | MIC ([3]; read-out: MIC Alone, EMRSA strain 16)
6 deaths: Mortality (EMRSA-15 [2]; vancomycin alone 4.0 mg/kg)
